# Reference: PubChem BioAssay (NCI)
#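 48-hour exposure; five concentrations; linearly interpolated endpoints. GI50 is the concentration that inhibits growth by half. TGI is the concentration that stops growth completely.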
# Columns and labels:
# Experiment in all cases: NCI tumour cell line growth inhibition, 48 h
# ACHN renal = test system: ACHN renal
# UO-31 renal = test system: UO-31 renal
# SK-OV-3 ovarian = test system: SK-OV-3 ovarian
# HCT-15 colon = test system: HCT-15 colon
# SF-539 CNS = test system: SF-539 CNS
# K-562 leukemia = test system: K-562 leukemia
# M14 melanoma = test system: M14 melanoma
# CCRF-CEM leukemia = test system: CCRF-CEM leukemia
# SK-MEL-28 melanoma = test system: SK-MEL-28 melanoma
# UACC-257 melanoma = test system: UACC-257 melanoma
# HS 578T breast = test system: HS 578T breast
# SF-295 CNS = test system: SF-295 CNS
# MDA-MB-435 = test system: MDA-MB-435
# SN12C renal = test system: SN12C renal
# SK-MEL-5 melanoma = test system: SK-MEL-5 melanoma
# BT-549 breast = test system: BT-549 breast
# OVCAR-5 ovarian = test system: OVCAR-5 ovarian
# SNB-19 CNS = test system: SNB-19 CNS
# MDA-MB-231 breast = test system: MDA-MB-231 breast
# CAKI-1 renal = test system: CAKI-1 renal
# HOP-62 NSCLC = test system: HOP-62 NSCLC
# NCI-H23 lung = test system: NCI-H23 lung
# SNB-75 CNS = test system: SNB-75 CNS
# HCT-116 colon = test system: HCT-116 colon
# SF-268 CNS = test system: SF-268 CNS
# TK-10 renal = test system: TK-10 renal
# DU-145 prostate = test system: DU-145 prostate
# HT29 colon = test system: HT29 colon
# SK-MEL-2 melanoma = test system: SK-MEL-2 melanoma
# OVCAR-4 ovarian = test system: OVCAR-4 ovarian
# UACC-62 melanoma = test system: UACC-62 melanoma
# NCI-H522 lung = test system: NCI-H522 lung
# MCF7 breast = test system: MCF7 breast
# OVCAR-3 ovarian = test system: OVCAR-3 ovarian
# NCI-H226 lung = test system: NCI-H226 lung
# RXF 393 renal = test system: RXF 393 renal
# COLO 205 colon = test system: COLO 205 colon
# HL-60(TB) leukemia = test system: HL-60(TB) leukemia
# MOLT-4 leukemia = test system: MOLT-4 leukemia
# KM12 colon = test system: KM12 colon
# U251 CNS = test system: U251 CNS
# A549 NSCLC = test system: A549 NSCLC
# EKVX NSCLC = test system: EKVX NSCLC
# HCC-2998 colon = test system: HCC-2998 colon
# PC-3 prostate = test system: PC-3 prostate
# SR leukemia = test system: SR leukemia
# NCI/ADR-RES ovarian = test system: NCI/ADR-RES ovarian
# SW-620 colon = test system: SW-620 colon
# OVCAR-8 ovarian = test system: OVCAR-8 ovarian
# NCI-H460 lung = test system: NCI-H460 lung
# A498 renal = test system: A498 renal
# 786-0 renal = test system: 786-0 renal
# LOX IMVI melanoma = test system: LOX IMVI melanoma
# T-47D breast = test system: T-47D breast
compound,measurement,setting,value
C=CC(=O)N1CCN(c2nc(OC[C@@H]3CCCN3C)nc3c2CCN(c2cccc4cccc(C)c24)C3)C[C@@H]1CC#N,GI50,ACHN renal,0.953 µM
same,TGI,ACHN renal,2.14 µM
same,GI50,UO-31 renal,1.28 µM
same,TGI,UO-31 renal,2.54 µM
same,GI50,SK-OV-3 ovarian,1.68 µM
same,TGI,SK-OV-3 ovarian,3.17 µM
same,GI50,HCT-15 colon,1.45 µM
same,TGI,HCT-15 colon,2.92 µM
same,GI50,SF-539 CNS,1.63 µM
same,TGI,SF-539 CNS,3.04 µM
same,GI50,K-562 leukemia,1.71 µM
same,TGI,K-562 leukemia,4.28 µM
same,GI50,M14 melanoma,1.82 µM
same,TGI,M14 melanoma,3.57 µM
same,GI50,CCRF-CEM leukemia,0.475 µM
same,TGI,CCRF-CEM leukemia,2.78 µM
same,GI50,SK-MEL-28 melanoma,1.71 µM
same,TGI,SK-MEL-28 melanoma,3.09 µM
same,GI50,UACC-257 melanoma,1.79 µM
same,TGI,UACC-257 melanoma,3.74 µM
same,GI50,HS 578T breast,1.71 µM
same,TGI,HS 578T breast,4.53 µM
same,GI50,SF-295 CNS,1.53 µM
same,TGI,SF-295 CNS,2.9 µM
same,GI50,MDA-MB-435,1.7 µM
same,TGI,MDA-MB-435,3.19 µM
same,GI50,SN12C renal,1.46 µM
same,TGI,SN12C renal,2.87 µM
same,GI50,SK-MEL-5 melanoma,1.68 µM
same,TGI,SK-MEL-5 melanoma,3.06 µM
same,GI50,BT-549 breast,1.58 µM
same,TGI,BT-549 breast,3.08 µM
same,GI50,OVCAR-5 ovarian,1.58 µM
same,TGI,OVCAR-5 ovarian,3.26 µM
same,GI50,SNB-19 CNS,1.59 µM
same,TGI,SNB-19 CNS,2.99 µM
same,GI50,MDA-MB-231 breast,1.39 µM
same,TGI,MDA-MB-231 breast,2.78 µM
same,GI50,CAKI-1 renal,1.18 µM
same,TGI,CAKI-1 renal,2.46 µM
same,GI50,HOP-62 NSCLC,< 0.01 µM
same,TGI,HOP-62 NSCLC,1.64 µM
same,GI50,NCI-H23 lung,< 0.01 µM
same,TGI,NCI-H23 lung,1.5 µM
same,GI50,SNB-75 CNS,1.09 µM
same,TGI,SNB-75 CNS,2.31 µM
O=C1CC(c2ccc3c(c2)OCO3)Nc2cc3c(cc21)OCO3 (centres undefined),GI50,ACHN renal,2.05 µM
same,TGI,ACHN renal,> 100 µM
same,GI50,UO-31 renal,0.767 µM
same,TGI,UO-31 renal,> 100 µM
same,GI50,HCT-116 colon,1.27 µM
same,TGI,HCT-116 colon,> 100 µM
same,GI50,SK-OV-3 ovarian,0.485 µM
same,TGI,SK-OV-3 ovarian,44.2 µM
same,GI50,SF-268 CNS,0.83 µM
same,TGI,SF-268 CNS,> 100 µM
same,GI50,HCT-15 colon,0.432 µM
same,TGI,HCT-15 colon,> 100 µM
same,GI50,SF-539 CNS,0.301 µM
same,TGI,SF-539 CNS,1.2 µM
same,GI50,TK-10 renal,2.77 µM
same,TGI,TK-10 renal,> 100 µM
same,GI50,K-562 leukemia,0.358 µM
same,TGI,K-562 leukemia,> 100 µM
same,GI50,DU-145 prostate,0.405 µM
same,TGI,DU-145 prostate,14.7 µM
same,GI50,HT29 colon,0.374 µM
same,TGI,HT29 colon,22.3 µM
same,GI50,SK-MEL-2 melanoma,0.747 µM
same,TGI,SK-MEL-2 melanoma,> 100 µM
same,GI50,CCRF-CEM leukemia,0.363 µM
same,TGI,CCRF-CEM leukemia,> 100 µM
same,GI50,OVCAR-4 ovarian,1.04 µM
same,TGI,OVCAR-4 ovarian,> 100 µM
same,GI50,UACC-62 melanoma,0.673 µM
same,TGI,UACC-62 melanoma,> 100 µM
same,GI50,NCI-H522 lung,0.551 µM
same,TGI,NCI-H522 lung,16.8 µM
same,GI50,MCF7 breast,0.364 µM
same,TGI,MCF7 breast,> 100 µM
same,GI50,UACC-257 melanoma,21.3 µM
same,TGI,UACC-257 melanoma,83 µM
same,GI50,OVCAR-3 ovarian,0.344 µM
same,TGI,OVCAR-3 ovarian,1.45 µM
same,GI50,NCI-H226 lung,13.9 µM
same,TGI,NCI-H226 lung,> 100 µM
same,GI50,RXF 393 renal,0.343 µM
same,TGI,RXF 393 renal,4.44 µM
same,GI50,HS 578T breast,0.512 µM
same,TGI,HS 578T breast,93.6 µM
same,GI50,SF-295 CNS,0.348 µM
same,TGI,SF-295 CNS,6.81 µM
same,GI50,SN12C renal,0.788 µM
same,TGI,SN12C renal,> 100 µM
same,GI50,SK-MEL-5 melanoma,0.364 µM
same,TGI,SK-MEL-5 melanoma,1.94 µM
same,GI50,COLO 205 colon,0.282 µM
same,TGI,COLO 205 colon,0.885 µM
same,GI50,BT-549 breast,3.24 µM
same,TGI,BT-549 breast,> 100 µM
same,GI50,HL-60(TB) leukemia,0.252 µM
same,TGI,HL-60(TB) leukemia,0.637 µM
same,GI50,MOLT-4 leukemia,0.56 µM
same,TGI,MOLT-4 leukemia,> 100 µM
same,GI50,KM12 colon,0.398 µM
same,TGI,KM12 colon,17.3 µM
same,GI50,U251 CNS,0.544 µM
same,TGI,U251 CNS,> 100 µM
same,GI50,A549 NSCLC,0.6 µM
same,TGI,A549 NSCLC,> 100 µM
same,GI50,EKVX NSCLC,1.93 µM
same,TGI,EKVX NSCLC,72.6 µM
same,GI50,HCC-2998 colon,0.694 µM
same,TGI,HCC-2998 colon,11 µM
same,GI50,PC-3 prostate,0.464 µM
same,TGI,PC-3 prostate,> 100 µM
same,GI50,SR leukemia,0.266 µM
same,TGI,SR leukemia,12.4 µM
same,GI50,OVCAR-5 ovarian,2.3 µM
same,TGI,OVCAR-5 ovarian,> 100 µM
same,GI50,NCI/ADR-RES ovarian,0.372 µM
same,TGI,NCI/ADR-RES ovarian,83.4 µM
same,GI50,SNB-19 CNS,0.687 µM
same,TGI,SNB-19 CNS,> 100 µM
same,GI50,SW-620 colon,0.357 µM
same,TGI,SW-620 colon,> 100 µM
same,GI50,CAKI-1 renal,0.527 µM
same,TGI,CAKI-1 renal,> 100 µM
same,GI50,OVCAR-8 ovarian,0.84 µM
same,TGI,OVCAR-8 ovarian,> 100 µM
same,GI50,HOP-62 NSCLC,0.523 µM
same,TGI,HOP-62 NSCLC,> 100 µM
same,GI50,NCI-H460 lung,0.353 µM
same,TGI,NCI-H460 lung,13 µM
same,GI50,A498 renal,0.169 µM
same,TGI,A498 renal,0.862 µM
same,GI50,786-0 renal,0.778 µM
same,TGI,786-0 renal,36.3 µM
same,GI50,NCI-H23 lung,0.479 µM
same,TGI,NCI-H23 lung,> 100 µM
same,GI50,LOX IMVI melanoma,0.467 µM
same,TGI,LOX IMVI melanoma,15.3 µM
N#Cc1c2cccnc2c2nnc3cc(Cl)c(Cl)cc3n12,GI50,SK-OV-3 ovarian,> 100 µM
same,TGI,SK-OV-3 ovarian,> 100 µM
same,GI50,SF-268 CNS,2.26 µM
same,TGI,SF-268 CNS,5.25 µM
same,GI50,TK-10 renal,> 100 µM
same,TGI,TK-10 renal,> 100 µM
same,GI50,K-562 leukemia,3.52 µM
same,TGI,K-562 leukemia,> 100 µM
same,GI50,SK-MEL-2 melanoma,3.33 µM
same,TGI,SK-MEL-2 melanoma,> 100 µM
same,GI50,CCRF-CEM leukemia,3.06 µM
same,TGI,CCRF-CEM leukemia,> 100 µM
same,GI50,OVCAR-3 ovarian,1.83 µM
same,TGI,OVCAR-3 ovarian,3.27 µM
same,GI50,T-47D breast,1.6 µM
same,TGI,T-47D breast,4 µM
same,GI50,SK-MEL-5 melanoma,> 100 µM
same,TGI,SK-MEL-5 melanoma,> 100 µM
same,GI50,MOLT-4 leukemia,3.59 µM
same,TGI,MOLT-4 leukemia,> 100 µM
same,GI50,A549 NSCLC,> 100 µM
same,TGI,A549 NSCLC,> 100 µM
same,GI50,SR leukemia,0.923 µM
same,TGI,SR leukemia,7.51 µM
same,GI50,OVCAR-5 ovarian,> 100 µM
same,TGI,OVCAR-5 ovarian,> 100 µM
same,GI50,786-0 renal,> 100 µM
same,TGI,786-0 renal,> 100 µM
same,GI50,NCI-H23 lung,2.81 µM
same,TGI,NCI-H23 lung,> 100 µM
same,GI50,SNB-75 CNS,1.54 µM
same,TGI,SNB-75 CNS,3.96 µM
